Values joined by “and” are separate entries in the source; they are usually repeats but may differ in a detail not shown here. Equal entries are not always repeated.
Target: T1, interaction of the aggregated Aβ peptide with a monoclonal anti-Aβ IgG (Homo sapiens, UniProt P05067)
T1 construct: Aggregated Aβ peptides were generated from synthetic Aβ(1-42) peptides
Assay: Semi-quantitative ELISA: inhibition of IgG-Aβ fibril interactions
Assay type: binding
Details: anti-Aβ IgG clone 6E10; for IC50: 50% inhibition of IgG-Aβ interactions; for Maximum % inhibition (ELISA): maximal percentage of IgG inhibited from binding to the fibrils
Experimental: The association of the synthesized compounds with aggregated Aβ peptides was tested using a semi-quantitative ELISA based assay developed by Yang and co-workers. See P. Inbar, J. Yang, Bioorg. Med. Chem. Lett. 2006, 16:1076-1079; P. Inbar, C. Q. Li, S. A. Takayama, M. R. Bautista, J. Yang, ChemBioChem 2006, 7:1563-1566; P. Inbar, M. R. Bautista, S. A. Takayama, J. Yang, Anal. Chem. 2008, 80:3502-3506. The assay is based on screening for molecules that inhibit the interaction of the aggregated Aβ peptide with a monoclonal anti-Aβ IgG raised against residues 1-17 of Aβ. Table 4 provides the concentrations of the compounds corresponding to 50% inhibition (IC50) of the IgG-Aβ interactions as well as the maximal percentage of the IgG's inhibited from binding to the fibrils. […] The maximum inhibition, a measure of the extent of surface coating of the aggregated peptide by the compounds, was determined to be between 40-98% (Table 4). See P. Inbar, J. Yang, Bioorg. Med. Chem. Lett. 2006, 16:1076-1079; P. Inbar, C. Q. Li, S. A. Takayama, M. R. Bautista, J. Yang, ChemBioChem 2006, 7:1563-1566; P. Inbar, M. R. Bautista, S. A. Takayama, J. Yang, Anal. Chem. 2008, 80:3502-3506. […] Specifically, while the maximum inhibition is between 81-98% for the phenyl compounds, it decreases to 58% for the longer naphthalene compound 11 and to 40% for the more conjugated stilbene 19.
Aggregated Aβ peptides were generated from synthetic Aβ(1-42) peptides by dissolving 30 μg of peptide in 90 μL of nanopure water (pH 5-6) and incubating at 37° C. for ≧72 h without agitation. Each well of a 96-well plate (well volume 0.4 mL; clear, flat bottom polypropylene) was coated for 3 h at 25° C. with 50 μL of 1.3 μM solution of Aβ peptides in phosphate-buffered saline (PBS, 10 mM NaH2PO4/Na2HPO4, 138 mM NaCl, 2.7 mM KCl, pH 7.4). After removal of the excess sample, 50 μL solutions of compounds in PBS buffer (various concentrations were obtained by diluting a stock solution with PBS buffer) were incubated in the wells for 12 h. […] The excess solutions were then removed and all wells were blocked for 30 min by adding 300 μL of a 1% (w/v) solution of bovine serum albumin in PBS buffer (BSA/PBS). On occasion, an additional blocking step was performed prior to incubation with solutions of small molecules. The blocking solution was discarded and the wells were washed once with 300 μL of PBS buffer. Wells were incubated for 1 h with 50 μL of a 1.1 nM solution (in 1% BSA/PBS, dilution 1:6000) of anti-Aβ IgG (clone 6E10, monoclonal, mouse), followed by removal of the solution. The wells were washed twice with 300 μL of PBS buffer and incubated for 60 min with 50 μL of the secondary IgG (anti-mouse IgG H+L, polyclonal, rabbit) conjugated with alkaline phosphatase (6.8 nM in 1% BSA/PBS, dilution 1:1000). The solution was discarded, and the wells were washed twice with 300 μL PBS buffer. Bound secondary IgGs were detected by the addition of 50 μL of a p-nitrophenyl phosphate solution (2.7 mM, in 100 mM diethanol amine/0.5 mM magnesium chloride, pH 9.8). Absorbance intensities were determined at 405 nm using a UV-vis spectroscopic plate reader (Sprectramax 190, Molecular Devices, Sunnyvale, Calif.). Each run was performed five times and averaged. Error bars represent standard deviations. Graphs were plotted and fitted with the sigmoid curve fitting.

T1 sequence (P05067 672-713 limits assumed): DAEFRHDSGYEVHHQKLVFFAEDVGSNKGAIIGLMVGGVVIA

IC50	Maximum % inhibition (ELISA) [%]	Compound
11.4 µM	98	CCN(CC)c1ccc(C=C(C#N)C(=O)OCCOCCOCCOC)cc1 (stereo in doubt) [Cmpd 8c, (Z)-2-(2-(2-methoxyethoxyl)ethoxy)ethyl 2-cyano-3-(4-(diethylamino)phenyl)acrylate]
90.6 µM	91	CCCCN(CCCC)c1ccc(C=C(C#N)C(=O)OCCOCCOCCOC)cc1 (stereo in doubt) [Cmpd 8d, (Z)-2-(2-(2-methoxyethoxyl)ethoxy)ethyl-2-cyano-3-(4-(dibutylamino)phenyl)acrylate]
129 µM	81	COCCOCCOCCOC(=O)/C(C#N)=C/c1ccc(N(C)C)cc1 [Cmpd 8a, (E)-2-(2-(2-methoxyethoxyl)ethoxy)ethyl 2-cyano-3-(4-(dimethylamino)phenyl)acrylate]
1.17 µM and 1.2 µM	92	COCCOCCOCCOC(=O)/C(C#N)=C/c1ccc(N(C)C)cc1OC [Cmpd 8b, (E)-2-(2-(2-methoxyethoxyl)ethoxy)ethyl 2-cyano-3-(4-(dimethylamino)-2-methoxyphenyl)acrylate]
74.3 µM	58	COCCOCCOCCOC(=O)/C(C#N)=C/c1ccc2cc(N3CCCCC3)ccc2c1 [Cmpd 11, (E)-2-(2-(2-methoxyethoxyl)ethoxy)ethyl-2-cyano-3-(6-(piperidin-1-yl)naphthalen-2-yl)acrylate]
82.1 µM	79	CN(C)c1ccc(/C=C(\C#N)C(=O)OCC(O)CO)cc1 (stereo not drawn) [Cmpd 14, (E)-2,3-dihydroxypropyl 2-cyano-3-(4-(dimethylamino)phenyl) acrylate]
